# Data taken from patent US20240141408A1, “CELL-BASED ASSAY FOR IDENTIFICATION OF ACTIVATORS OF GAMMA-SECRETASE” (The Brigham and Women’s Hospital, Inc., priority 2021, published 2024).
# System: γ-secretase
# Assay: Notch target gene reporter (Hes1-Luc / NotchΔE) luciferase assay in stable MEFs
# Assay type: cell-based, mouse
# Conditions: L435F KI/+ stable cells, clone A23; FIG. 4
# Experimental: For screening, cells were seeded in 384-well plates using Thermo Multidrop Combi at a density of 2,500 cells in 30 μl media and compounds were transferred by Seiko Compound Transfer Robot on the same day. For dose response, compounds were dispensed via the Hewlett Packard D300.
# The steady glo luciferase assay system (Promega) was used to determine firefly luciferase activity per manufacturer's instructions. Luciferase activity was detected 24 hours after transfection using a plate reader (Perkin Elmer EnVision).
# MEFs (1.5×10^6) were seeded in two 10-cm tissue culture plates; one to be used as a negative control. The next day, one plate is transfected with 9 μg CMV-NotchΔE (neomycin) and […] Hes1Luciferase (hygromycin) plasmids. 24-hours later, cells in both plates were passaged 1:100, 1:200 and 1:1000 and maintained in DMEM media supplied with 10% FBS, 100 ug/ml Hygromycin, and 200 μg/ml G418. Media was changed every 3 days and cells were checked daily ensuring that cells in the untransfected plates (negative control) have died. Within two weeks, hygromycin/G418 resistant colonies were formed with a diameter of approximately 5 mm. Each clone was transferred into a separate well of a 24-well plate. When confluent, MEFs were transferred into 6-well plates then into 10 cm dishes. For each clone, some cells were frozen while others harvested to test luciferase and notchΔE expression via luciferase assay, western blot and Q-RT-PCR.
# For the identification of compounds that could increase the activity of γ-secretase, a Notch target gene reporter system was created. It contains two plasmids: Hes1 proximal promoter containing two Notch responsive CBF1/RBPJκ binding sites driving expression of a firefly luciferase in a hygromycin resistant plasmid (Hes1-Luc-Hygro), and CMV promoter and NotchΔE cloned in a neomycin resistant plasmid (CMV-NΔE-Neo) (FIG. 1A).
# For the identification of compounds that could increase γ-secretase activity, L435F KI/+ stable cells expressing both CMV-NΔE-Neo and Hes1-Luc-hygro were generated. Luciferase expression in the selected clones was confirmed via a luciferase assay (FIG. 3A). We also performed quantitative RTPCR using primers specific for luciferase and Notch-cMyc to confirm their expression (FIG. 3B-C).
# After generating the stable cells, 384-well plates were optimized in the EnVision plate reader for plate dimension, and crosstalk correction. To provide a robust (high Z′ factor) HTS-compatible assay, four clones expressing different levels of NotchΔE and luciferase (FIG. 3A-C, black arrows) were compared to identify the maximum difference in signal between DMSO, and DAPT (γ-secretase inhibitor), as well as genetic positive (a clone expressing high levels of luciferase) controls. […]
row,luciferase activity,Structure (SMILES)
1,lesser effect,C[C@@H](C(=O)O)c1ccc(-c2ccccc2)c(F)c1 [R-Flurbiprofen]
2,reduction of luciferase activity,"CC(C)C[C@H](NC(=O)[C@H](Cc1ccccc1)C[C@@H](O)[C@H](Cc1ccccc1)NC(=O)OC(C)(C)C)C(=O)N[C@@H](Cc1ccccc1)C(N)=O [L685,458]"
3,reduction of luciferase activity,C[C@H](NC(=O)Cc1cc(F)cc(F)c1)C(=O)N[C@H](C(=O)OC(C)(C)C)c1ccccc1 [DAPT]
4,lesser effect,COc1ccc2c(c1)c(CC(=O)O)c(C)n2C(=O)c1ccc(Cl)cc1 [Indomethacin]
